The text below walks through data of patent US12264173B2 (GILEAD SCIENCES, INC., priority 2020, dated 2025).

Holding throughout (type): cell-based
Assay [1] deals with RSV A2. Briefly: RSV NHBE EC50 (RSV A2 antiviral assay in NHBE cells). To be noted: Table 3, NHBE cells, RSV A2, 4 days, read-out: RSV NHBE EC50. The method, boiled down:
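NHBE cells (≤6 passages) were seeded at 7,500 cells per well, treated with 3-fold serially diluted compound at 0.05% DMSO, then infected with RSV A2 at 1×10^4.5 TCID/mL. After 4 days at 37° C, viability was measured by CellTiter-Glo luminescence.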

Assay [2] relates to RSV strain A2. The experiment in a line: microbe, parasite or virus in culture. To be noted: Table 3, HEp-2 cells, RSV A2, 4 days, read-out: RSV HEp-2 EC50. In outline: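 Cytopathic-effect protection assay: HEp-2 cells (50,000/mL) infected with pre-titered RSV A2 onto 3-fold serial compound dilutions, incubated 4 days at 37° C. Cell viability read by CellTiter-Glo luminescence; percent inhibition derived against 0% and 100% virus-inhibition controls.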

In assay [3] the test system is HRV16. The experiment in a line: HRV16 HeLa EC50 (cytopathic effect in H1-HeLa cells). In outline:
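H1-HeLa cells seeded one day before, given 3-fold serial compound dilutions in triplicate just prior to infection with pre-titrated virus. Incubated 96 h at 33 °C/5% CO2; protection from cytopathic effect read as viability by CellTiter-Glo luminescence, normalised to infected untreated (0%) and uninfected (100%) controls.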

The subject of assay [4] is DENV2 replicon. Briefly: DENV-2 Huh-7 Rep EC50 (replicon luminescence). In outline: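 Huh-7 cells carrying a DENV2 replicon, 5,000 cells/well, were incubated with dosed compounds for 48 h at 37° C. EnduRen live-cell substrate was added 1.5 h before luminescence reading. EC50 came from dose-response against DMSO-only wells.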
Background: Replicon systems follow genome replication, usually without infectious particles.

Where [5] appears, read: human respiratory syncytial virus, NHBE, 96 h.
Setting [6] is: human respiratory syncytial virus, HEp-2, 96 h.
[7] abbreviates: 96 h, Table 3; H1-HeLa cells, 96 h; read-out: HRV16 HeLa EC50.
Setting [8] is: Dengue virus, DENV2, Huh-7, 48 h, read-out: DENV-2 REP Huh7 EC50.
The mark [9] stands for this setting: Table 3; H1-HeLa cells, 96 h; read-out: HRV16 HeLa EC50.
The mark [10] stands for this setting: Table 3, Huh-7 DENV2 replicon cells, 48 hours, read-out: DENV-2 REP Huh7 EC50.

Like-named read-outs stand apart in the source and are kept apart here.

Regarding `CCCCOC(=O)[C@H](C)NP(=O)(N[C@@H](C)C(=O)OCCCC)OC[C@@]1(C#N)O[C@@H](c2ccc3c(N)ncnn23)[C@H](OC(=O)CC)[C@@H]1OC(=O)CC` [Example 193], the EC50 – broadly, the concentration needed to bring the measured effect to its halfway point – in assay [1] (setting [5]) worked out at 125 nM; in assay [2] (setting [6]), 610 nM; in assay [3] (setting [7]) it was 1620 nM; in assay [4] (Dengue virus, DENV2, Huh-7, 48 h, read-out: DENV-2 REP Huh7 EC50, Table 3, Huh-7 DENV2 replicon cells, 48 hours) it was 30000 nM.

In the case of `CCC(=O)O[C@H]1[C@H](c2ccc3c(N)ncnn23)O[C@](C#N)(COP(=O)(N[C@@H](C)C(=O)OC)Oc2ccccc2)[C@H]1OC(=O)CC` (stereo partly drawn) [Example 141, (2R,3S,4S,5S)-5-(4-aminopyrrolo[2,1-f][1,2,4]triazin-7-yl)-2-cyano-2-((((((S)-1-methoxy-1-oxopropan-2-yl)amino)(phenoxy)phosphoryl)oxy)methyl)tetrahydrofuran-3,4-diyl dipropionate], the EC50 in assay [1] (setting [5]) was determined as 23 nM; in assay [2] (setting [6]), 80 nM; in assay [3] (setting [7]), 253 nM; in assay [4] (setting [8]), 7490 nM.

Take `CC(C)OC(=O)[C@H](C)N[P@](=O)(OC[C@@]1(C#N)O[C@@H](c2ccc3c(N)ncnn23)[C@H](OC(=O)[C@@H](N)C(C)C)[C@@H]1OC(=O)[C@@H](N)C(C)C)Oc1ccccc1` [Example 157, (2R,3S,4S,5S)-5-(4-aminopyrrolo[2,1-f][1,2,4]triazin-7-yl)-2-cyano-2-((((S)-(((S)-1-isopropoxy-1-oxopropan-2-yl)amino)(phenoxy)phosphoryl)oxy)methyl)tetrahydrofuran-3,4-diyl (2S,2'S)-bis(2-amino-3-methylbutanoate)]: the EC50 in assay [1] (setting [5]) was 1590 nM; in assay [2] (setting [6]) it was 227 nM; in assay [3] (setting [7]), 1790 nM; in assay [4] (setting [8]), 25800 nM.

Turning to `CC(C)OC(=O)C(C)NP(=O)(OCC1(C#N)OC(c2ccc3c(N)ncnn23)C(OC(=O)C(C)C)C1OC(=O)C(C)C)Oc1ccc(C(=O)N(C)C)cc1` (single isomer, unassigned) [Example 179], the EC50 in assay [1] amounted to 100 nM; in assay [2], 161 nM; in assay [3] (setting [9]), 731 nM; in assay [4] (setting [10]), 29400 nM.

For the compound `COC(=O)[C@H](C)NP(=O)(OC[C@@]1(C#N)O[C@@H](c2ccc3c(N)ncnn23)[C@H](OC(C)=O)[C@@H]1OC(C)=O)Oc1ccccc1` (stereo partly drawn) [Example 129, (2R,3S,4S,5S)-5-(4-aminopyrrolo[2,1-f][1,2,4]triazin-7-yl)-2-cyano-2-((((((S)-1-methoxy-1-oxopropan-2-yl)amino)(phenoxy)phosphoryl)oxy)methyl)tetrahydrofuran-3,4-diyl diacetate], the EC50 was 77 nM in assay [1] (setting [5]), 154 nM in assay [2] (setting [6]), 1110 nM in assay [3] (setting [7]) and 15500 nM in assay [4] (setting [8]).

`CCC(=O)OC1C(c2ccc3c(N)ncnn23)OC(C#N)(COP(=O)(NC(C)C(=O)OCC2CCC2)Oc2ccccc2)C1OC(=O)CC` (stereo not shown) [Example 93]: the EC50 in assay [1] came out at 25 nM; in assay [2], 48 nM; in assay [3] (setting [9]), 171 nM; in assay [4] (setting [10]), 12800 nM.

In the case of `CC(C)OC(=O)[C@H](C)N[P@](=O)(OC[C@@]1(C#N)O[C@@H](c2ccc3c(N)ncnn23)[C@H](OC(=O)C(C)C)[C@@H]1OC(=O)C(C)C)Oc1ccccc1` [Example 84, (2R,3S,4S,5S)-5-(4-aminopyrrolo[2,1-f][1,2,4]triazin-7-yl)-2-cyano-2-((((S)-(((S)-1-isopropoxy-1-oxopropan-2-yl)amino)(phenoxy)phosphoryl)oxy)methyl) tetrahydrofuran-3,4-diyl bis(2-methylpropanoate)], the EC50 in assay [1] (setting [5]) came to 16 nM; in assay [2] (setting [6]), 58 nM; in assay [3] (setting [7]), 121 nM; in assay [4] (setting [8]), 13000 nM.

Regarding `CC(=O)O[C@H]1[C@H](c2ccc3c(N)ncnn23)O[C@](C#N)(COP(=O)(N[C@@H](C)C(=O)OCc2ccccc2)Oc2ccccc2)[C@H]1OC(C)=O` (stereo partly drawn) [Example 126, (2R,3S,4S,5S)-5-(4-aminopyrrolo[2,1-f][1,2,4]triazin-7-yl)-2-((((((S)-1-(benzyloxy)-1-oxopropan-2-yl)amino)(phenoxy)phosphoryl)oxy)methyl)-2-cyanotetrahydrofuran-3,4-diyl diacetate], the concentration for a half-maximal effect (EC50) is 45 nM in assay [1] (setting [5]), 121 nM in assay [2] (setting [6]), 514 nM in assay [3] (setting [7]) and 16000 nM in assay [4] (setting [8]).

For the compound `CC(C)C(=O)OC1C(c2ccc3c(N)ncnn23)OC(C#N)(COP(=O)(NC(C)C(=O)OCC2CCC(N)CC2)Oc2ccccc2)C1OC(=O)C(C)C` (single isomer, unassigned) [Example 209], the half-maximal effective concentration (EC50) in assay [1] was determined as 168 nM; in assay [2], 1570 nM; in assay [3] (setting [9]), 8520 nM; in assay [4] (setting [10]) it was 31400 nM.

With `CCC(=O)Nc1ncnn2c([C@@H]3O[C@](C#N)(COP(=O)(N[C@@H](C)C(=O)OC4CCOCC4)Oc4ccccc4)[C@@H](OC(=O)CC)[C@H]3OC(=O)CC)ccc12` (stereo partly drawn) [Example 170, (2R,3S,4S,5S)-2-Cyano-2-((((((S)-1-oxo-1-((tetrahydro-2H-pyran-4-yl)oxy)propan-2-yl)amino)(phenoxy)phosphoryl)oxy)methyl)-5-(4-propionamidopyrrolo[2,1-f][1,2,4]triazin-7-yl)tetrahydrofuran-3,4-diyl dipropionate], the EC50 in assay [1] (setting [5]) came to 80 nM; in assay [2] (setting [6]), 267 nM; in assay [3] (setting [7]), 863 nM; in assay [4] (setting [8]) it was 15900 nM.

Turning to `CC(C)C(=O)O[C@H]1[C@H](c2ccc3c(N)ncnn23)O[C@](C#N)(COP(=O)(N[C@@H](C)C(=O)OC[C@H]2CC[C@H](C(F)(F)F)CC2)Oc2ccccc2)[C@H]1OC(=O)C(C)C` (stereo partly shown) [Example 87], the 50% effective concentration (EC50) amounted to 23 nM in assay [1] (setting [5]), 119 nM in assay [2] (setting [6]), 220 nM in assay [3] (setting [7]) and 12300 nM in assay [4] (setting [8]).

For `C/C(=N\c1ncnn2c([C@@H]3O[C@](C#N)(COP(=O)(N[C@@H](C)C(=O)OC4CCOCC4)Oc4ccccc4)[C@@H](OC(=O)C(C)C)[C@H]3OC(=O)C(C)C)ccc12)N(C)C` (stereo partly drawn) [Example 219, (2R,3S,4S,5S)-2-cyano-5-(4-(((E)-1-(dimethylamino)ethylidene)amino)pyrrolo[2,1-f][1,2,4]triazin-7-yl)-2-((((((S)-1-oxo-1-((tetrahydro-2H-pyran-4-yl)oxy)propan-2-yl)amino)(phenoxy)phosphoryl)oxy)methyl) tetrahydrofuran-3,4-diyl bis(2-methylpropanoate)], the EC50 is 82 nM in assay [1], 67 nM in assay [2], 356 nM in assay [3] (setting [9]) and 16400 nM in assay [4] (setting [10]).

Consider `CC(=O)O[C@H]1[C@H](c2ccc3c(N)ncnn23)O[C@](C#N)(CO[P@@](=O)(N[C@@H](C)C(=O)OCC2CCC2)Oc2ccccc2)[C@H]1OC(C)=O` [Example 95], for which the concentration for a half-maximal effect (EC50) in assay [1] is 20 nM; in assay [2], 90 nM; in assay [3] (setting [9]), 429 nM; in assay [4] (setting [10]), 19800 nM.

For `CCCOC(=O)[C@H](C)NP(=O)(OC[C@@]1(C#N)O[C@@H](c2ccc3c(N)ncnn23)[C@H](OC(=O)CC)[C@@H]1OC(=O)CC)Oc1ccccc1` (single isomer, unassigned) [Example 189], the EC50 in assay [1] worked out at 51 nM; in assay [2], 36 nM; in assay [3] (setting [9]), 114 nM; in assay [4] (setting [10]) it was 8840 nM.

`CC(C)C(=O)O[C@H]1[C@H](c2ccc3c(N)ncnn23)O[C@](C#N)(COP(=O)(NCCOC(=O)C(C)(C)C)Oc2ccccc2)[C@H]1OC(=O)C(C)C` (stereo partly drawn) [Example 97, (2R,3S,4S,5S)-5-(4-aminopyrrolo[2,1-f][1,2,4]triazin-7-yl)-2-cyano-2-(((phenoxy((2-(pivaloyloxy)ethyl)amino)phosphoryl)oxy)methyl)tetrahydrofuran-3,4-diyl bis(2-methylpropanoate)]: the EC50 in assay [1] (setting [5]) was above 5000 nM; in assay [2] (setting [6]), 366 nM; in assay [3] (setting [7]), 1120 nM; in assay [4] (setting [8]), 9050 nM.

In the case of `CO[C@H](C)C(=O)O[C@H]1[C@H](c2ccc3c(N)ncnn23)O[C@](C#N)(CO[P@@](=O)(N[C@@H](C)C(=O)OC(C)C)Oc2ccccc2)[C@H]1OC(=O)[C@@H](C)OC` [Example 154, (2R,3S,4S,5S)-5-(4-aminopyrrolo[2,1-f][1,2,4]triazin-7-yl)-2-cyano-2-((((S)-(((S)-1-isopropoxy-1-oxopropan-2-yl)amino)(phenoxy)phosphoryl)oxy)methyl) tetrahydrofuran-3,4-diyl (2R,2′R)-bis(2-methoxypropanoate)], the 50% effective concentration (EC50) stood at 114 nM in assay [1] (setting [5]), 185 nM in assay [2] (setting [6]), 874 nM in assay [3] (setting [7]) and 20500 nM in assay [4] (setting [8]).
